## CC(C)n1c(=O)n(C(=O)NCC2CCN(CC3(C(=O)O)CCOCC3)CC2)c2ccccc21 [Example 1, 4-{[4-({[(3-isopropyl-2-oxo-2,3-dihydro-1H-benzimidazol-1-yl)carbonyl]amino}methyl)piperidin-1-yl]methyl}tetrahydro-2H-pyran-4-carboxylic acid]
  melting point: 223 °C

Source: patent US7705020B2, “Benzimidazolone carboxylic acid derivatives” (Pfizer Inc., priority 2004, dated 2010)
